Measured values from patent US7951829B2, “Benzimidazole modulators of VR1” (Janssen Pharmaceutica NV, priority 2006, dated 2011).

Molecular target: T1, hVR1 (Homo sapiens, UniProt Q8NER1)
T1 construct: expressed in transfected cells; host or cells: HEK293
Test: Human VR1 (hVR1) Functional Assay (FLIPR intracellular calcium, capsaicin challenge)
Assay type: cell-based
Conditions: capsaicin 0.030 μM, HEK293 cells expressing hVR1; for inhibition at 1 µM: test concentration 1 μM

T1 sequence (Q8NER1 whole entry): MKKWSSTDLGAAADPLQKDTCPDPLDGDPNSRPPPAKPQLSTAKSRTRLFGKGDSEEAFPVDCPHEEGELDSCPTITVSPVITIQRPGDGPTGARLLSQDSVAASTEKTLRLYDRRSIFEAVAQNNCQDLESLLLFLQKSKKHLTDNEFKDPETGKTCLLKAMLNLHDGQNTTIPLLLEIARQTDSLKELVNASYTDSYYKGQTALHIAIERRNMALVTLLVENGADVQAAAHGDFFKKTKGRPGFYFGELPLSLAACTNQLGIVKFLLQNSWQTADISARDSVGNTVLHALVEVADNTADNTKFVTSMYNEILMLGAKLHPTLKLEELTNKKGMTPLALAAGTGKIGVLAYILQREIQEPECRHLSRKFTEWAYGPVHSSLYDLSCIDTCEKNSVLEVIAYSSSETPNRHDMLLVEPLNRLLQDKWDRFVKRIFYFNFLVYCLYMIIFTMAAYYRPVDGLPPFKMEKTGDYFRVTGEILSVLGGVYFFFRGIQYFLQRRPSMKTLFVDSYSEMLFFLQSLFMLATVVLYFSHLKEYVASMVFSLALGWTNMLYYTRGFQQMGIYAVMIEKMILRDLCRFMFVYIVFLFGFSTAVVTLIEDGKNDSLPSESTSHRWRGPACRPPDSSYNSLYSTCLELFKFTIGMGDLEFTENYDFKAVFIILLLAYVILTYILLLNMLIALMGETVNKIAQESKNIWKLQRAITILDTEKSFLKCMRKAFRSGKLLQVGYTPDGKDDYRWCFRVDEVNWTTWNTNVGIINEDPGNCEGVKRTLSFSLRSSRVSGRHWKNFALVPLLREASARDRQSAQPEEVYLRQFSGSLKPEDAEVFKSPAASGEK

Row | SMILES | IC50 [nM] | inhibition at 1 µM [%]
1 | NS(=O)(=O)c1ccccc1-c1ccc2[nH]c(CCc3cccc(OC(F)(F)F)c3)nc2c1 [Cpd 391, 2-{2-[2-(3-trifluoromethoxy-phenyl)-ethyl]-1H-benzimidazol-5-yl}-benzenesulfonamide] | 8 | 95
2 | CC(O)c1ccccc1-c1ccc2[nH]c(CCc3ccc(S(=O)(=O)C(F)(F)F)cc3)nc2c1 (stereo not drawn) [Cpd 46, 1-(2-{2-[2-(4-trifluoromethanesulfonyl-phenyl)-ethyl]-1H-benzimidazol-5-yl}-phenyl)-ethanol] | 46 | 100
3 | CS(=O)(=O)c1cc(Cl)ccc1/C=C/c1nc2cc(-c3ccccc3S(N)(=O)=O)ccc2[nH]1 [Cpd 375, (E)-2-{2-[2-(4-chloro-2-methanesulfonyl-phenyl)-vinyl]-1H-benzimidazol-5-yl}-benzenesulfonamide] | 139 | 97
4 | NS(=O)(=O)c1ccccc1-c1ccc2[nH]c(/C=C/c3c(F)cccc3F)nc2c1 [Cpd 372, (E)-2-{2-[2-(2,6-difluoro-phenyl)-vinyl]-1H-benzimidazol-5-yl}-benzenesulfonamide] | 71 | 97
5 | NS(=O)(=O)c1ccccc1-c1ccc2[nH]c(/C=C/c3cc(F)cc(C(F)(F)F)c3)nc2c1 [Cpd 436, (E)-2-{2-[2-(3-fluoro-5-trifluoromethyl-phenyl)-vinyl]-1H-benzimidazol-5-yl}-benzenesulfonamide] | 10 | 96
6 | CC(=O)c1ccccc1-c1cc2nc(/C=C/c3ccc(C(F)(F)F)cc3)[nH]c2cc1C(F)(F)F [Cpd 57, (E)-1-(2-{6-trifluoromethyl-2-[2-(4-trifluoromethyl-phenyl)-vinyl]-1H-benzimidazol-5-yl}-phenyl)-ethanone] |  | 15
7 | O=C(Nc1ccccc1-c1ccc2[nH]c(/C=C/c3ccc(C(F)(F)F)cc3)nc2c1)C(F)(F)F [Cpd 458, (E)-2,2,2-trifluoro-N-(2-{2-[2-(4-trifluoromethyl-phenyl)-vinyl]-1H-benzimidazol-5-yl}-phenyl)-acetamide] |  | 15
8 | NC(=O)c1ccccc1-c1ccc2[nH]c(/C=C/c3ccc(OC(F)(F)F)cc3)nc2c1 [Cpd 19, (E)-2-{2-[2-(4-trifluoromethoxy-phenyl)-vinyl]-1H-benzimidazol-5-yl}-benzamide] |  | 32
9 | COc1ccc(C2CC2c2nc3cc(-c4ccccc4C(C)(C)O)ccc3[nH]2)cc1 (stereo not drawn) [Cpd 494, 2-(2-{2-[2-(4-methoxy-phenyl)-cyclopropyl]-1H-benzimidazol-5-yl}-phenyl)-propan-2-ol] | 52 | 93
10 | CNS(=O)(=O)c1ccccc1-c1ccc2[nH]c(/C=C/c3ccccc3Br)nc2c1 [Cpd 348, (E)-2-{2-[2-(2-bromo-phenyl)-vinyl]-1H-benzimidazol-5-yl}-N-methyl-benzenesulfonamide] | 162 | 86
11 | CC(C)(C)c1ccc(/C=C/c2nc3cc(-c4cccc(O)c4)c(C(F)(F)F)cc3[nH]2)cc1 [Cpd 49, (E)-3-{2-[2-(4-tert-butyl-phenyl)-vinyl]-6-trifluoromethyl-1H-benzimidazol-5-yl}-phenol] |  | 16
12 | NS(=O)(=O)c1ccccc1-c1ccc2[nH]c(CCc3ccc(F)c(F)c3)nc2c1 [Cpd 393, 2-{2-[2-(3,4-difluoro-phenyl)-ethyl]-1H-benzimidazol-5-yl}-benzenesulfonamide] | 10 | 98
13 | NS(=O)(=O)c1ccc(C(F)(F)F)cc1-c1ccc2[nH]c(CCc3ccc(C(F)(F)F)cc3)nc2c1 [Cpd 445, 4-trifluoromethyl-2-{2-[2-(4-trifluoromethyl-phenyl)-ethyl]-1H-benzimidazol-5-yl}-benzenesulfonamide] | 20 | 96
14 | CNS(=O)(=O)c1ccccc1-c1ccc2[nH]c(/C=C/c3ccc(SC(F)(F)F)cc3)nc2c1 [Cpd 341, (E)-N-methyl-2-{2-[2-(4-trifluoromethylsulfanyl-phenyl)-vinyl]-1H-benzimidazol-5-yl}-benzenesulfonamide] | 6 | 99
15 | CNS(=O)(=O)c1ccccc1-c1ccc2[nH]c(/C=C/c3cc(F)cc(C(F)(F)F)c3)nc2c1 [Cpd 322, (E)-2-{2-[2-(3-fluoro-5-trifluoromethyl-phenyl)-vinyl]-1H-benzimidazol-5-yl}-N-methyl-benzenesulfonamide] | 14 | 101
16 | NS(=O)(=O)c1ccccc1-c1ccc2[nH]c(/C=C/c3ccccc3)nc2c1 [Cpd 426, (E)-2-(2-styryl-1H-benzimidazol-5-yl)-benzenesulfonamide] | 22 | 99
17 | CS(=O)(=O)Nc1ccccc1-c1ccc2[nH]c(/C=C/c3ccc4ccccc4c3)nc2c1 [Cpd 415, (E)-N-{2-[2-(2-naphthalen-2-yl-vinyl)-1H-benzimidazol-5-yl]-phenyl}-methanesulfonamide] | 150 | 95
18 | NC(=O)c1ccccc1-c1cc2nc(/C=C/c3ccc(C(F)(F)F)cc3)[nH]c2cc1F [Cpd 63, (E)-2-{6-fluoro-2-[2-(4-trifluoromethyl-phenyl)-vinyl]-1H-benzimidazol-5-yl}-benzamide] | 260 | 97

Row | SMILES | IC50 [nM] | inhibition at 1 µM [%]
19 | NS(=O)(=O)c1ccccc1-c1ccc2[nH]c(/C=C/c3ccc(C(F)(F)F)c(F)c3)nc2c1 [Cpd 423, (E)-2-{2-[2-(3-fluoro-4-trifluoromethyl-phenyl)-vinyl]-1H-benzimidazol-5-yl}-benzenesulfonamide] | 11 | 99
20 | NS(=O)(=O)c1ccccc1-c1ccc2[nH]c(C#Cc3ccc(C(F)(F)F)cc3)nc2c1 [Cpd 250, 2-[2-(4-trifluoromethyl-phenylethynyl)-1H-benzimidazol-5-yl]-benzenesulfonamide] | 19 | 98
21 | Cn1c(/C=C/c2ccc(C(F)(F)F)cc2)nc2cc(-c3ccccc3NS(C)(=O)=O)ccc21 [Cpd 477, (E)-N-(2-{1-methyl-2-[2-(4-trifluoromethyl-phenyl)-vinyl]-1H-benzimidazol-5-yl}-phenyl)-methanesulfonamide] |  | 44
22 | NS(=O)(=O)c1ccccc1-c1ccc2[nH]c(C#Cc3cccc(C(F)(F)F)c3)nc2c1 [Cpd 295, 2-[2-(3-trifluoromethyl-phenylethynyl)-1H-benzimidazol-5-yl]-benzenesulfonamide] | 16 | 100
23 | CC(C)(C)c1ccc(/C=C/c2nc3cc(-c4ccccc4N)ccc3[nH]2)cc1 [Cpd 11, (E)-2-{2-[2-(4-tert-butyl-phenyl)-vinyl]-1H-benzimidazol-5-yl}-phenylamine] | 210 | 100
24 | CC(C)(C)c1ccc(/C=C/c2nc3cc(-c4ccccc4C(N)=O)c(C(F)(F)F)cc3[nH]2)cc1 [Cpd 53, (E)-2-{2-[2-(4-tert-butyl-phenyl)-vinyl]-6-trifluoromethyl-1H-benzimidazol-5-yl}-benzamide] | 47 | 98
25 | NS(=O)(=O)c1ccccc1-c1ccc2[nH]c(/C=C/c3cc(Br)ccc3F)nc2c1 [Cpd 379, (E)-2-{2-[2-(5-bromo-2-fluoro-phenyl)-vinyl]-1H-benzimidazol-5-yl}-benzenesulfonamide] | 40 | 99
26 | NS(=O)(=O)c1ccccc1-c1ccc2[nH]c(CCc3cc(F)ccc3F)nc2c1 [Cpd 395, 2-{2-[2-(2,5-difluoro-phenyl)-ethyl]-1H-benzimidazol-5-yl}-benzenesulfonamide] | 15 | 99
27 | CC(=O)Nc1ccc(-c2ccc3[nH]c(/C=C/c4ccc(C(C)(C)C)cc4)nc3c2)cc1 [Cpd 8, (E)-N-(4-{2-[2-(4-tert-butyl-phenyl)-vinyl]-1H-benzimidazol-5-yl}-phenyl)-acetamide] |  | 10
28 | CNS(=O)(=O)c1ccccc1-c1ccc2[nH]c(/C=C/c3ccc(F)cc3)nc2c1 [Cpd 315, (E)-2-{2-[2-(4-fluoro-phenyl)-vinyl]-1H-benzimidazol-5-yl}-N-methyl-benzenesulfonamide] | 11 | 100
29 | CNS(=O)(=O)c1ccccc1-c1ccc2[nH]c(/C=C/c3cc(C(F)(F)F)ccc3C(F)(F)F)nc2c1 [Cpd 334, (E)-2-{2-[2-(2,5-bis-trifluoromethyl-phenyl)-vinyl]-1H-benzimidazol-5-yl}-N-methyl-benzenesulfonamide] | 178 | 94
30 | CC(C)(O)c1ccccc1-c1ccc2[nH]c(/C=C/c3ccccc3)nc2c1 [Cpd 468, (E)-2-[2-(2-styryl-1H-benzimidazol-5-yl)-phenyl]-propan-2-ol] | 8 | 97
31 | NS(=O)(=O)c1ccccc1-c1ccc2[nH]c(CCc3ccc(F)cc3C(F)(F)F)nc2c1 [Cpd 404, 2-{2-[2-(4-fluoro-2-trifluoromethyl-phenyl)-ethyl]-1H-benzimidazol-5-yl}-benzenesulfonamide] | 47 | 94
32 | CC(C)(O)c1ccccc1-c1ccc2[nH]c(/C=C/c3ccc(S(C)(=O)=O)cc3)nc2c1 [Cpd 84, (E)-2-(2-{2-[2-(4-methanesulfonyl-phenyl)-vinyl]-1H-benzimidazol-5-yl}-phenyl)-propan-2-ol] | 40 | 100
33 | CNS(=O)(=O)c1ccccc1-c1ccc2[nH]c(/C=C/c3ccc(C(C)=O)cc3)nc2c1 [Cpd 456, (E)-2-{2-[2-(4-acetyl-phenyl)-vinyl]-1H-benzimidazol-5-yl}-N-methyl-benzenesulfonamide] | 45 | 100
34 | CC(=O)Nc1ccccc1-c1ccc2[nH]c(CCc3ccc(C(F)(F)F)cc3)nc2c1 [Cpd 457, N-(2-{2-[2-(4-trifluoromethyl-phenyl)-ethyl]-1H-benzimidazol-5-yl}-phenyl)-acetamide] |  | 22
35 | CNS(=O)(=O)c1ccccc1-c1ccc2[nH]c(/C=C/c3cc(F)ccc3F)nc2c1 [Cpd 326, (E)-2-{2-[2-(2,5-difluoro-phenyl)-vinyl]-1H-benzimidazol-5-yl}-N-methyl-benzenesulfonamide] | 157 | 89
